We go through two molecules from publication PMC9598656, “In Vitro Activity of Robenidine Analogues NCL259 and NCL265 against Gram-Negative Pathogens” (Antibiotics, 2022).

Converted amounts (≈) assume the structure as drawn.

For one test, the system named is P. aeruginosa PAO1. The experiment in a line: Checkerboard assay with PMB. The format is cell-based, Pseudomonas aeruginosa. The conditions noted are these: for MIC, Combination: NCL259 or NCL265 with PMB; for Combination Effect / FICI: with PMB. The procedure: MICs of NCL259 or NCL265 in the presence of the efflux pump inhibitor, PAβN were determined using a checkerboard assay. […] Briefly, a two-fold serial dilution of each antimicrobial solution was prepared in its appropriate solvent (e.g., DMSO for robenidine analogues and Milli-Q water for PAβN), and 1 μL of each dilution was added from wells 12 to 3 (12.8–0.25 μg/mL for robenidine analogues, and 32–2 μg/mL for PAβN). Thereafter, 89 μL of LB broth was added to each well followed by the addition of 10 μL of bacterial suspension (1–5 × 10^6 CFU/mL) to each well. In this manner, the final concentration of DMSO in each well was 1%. The plate was subsequently incubated at 37 °C for 24 h. The resazurin assay was used for assessment of drug susceptibility of NCL259 and NCL265 (Supplementary Table S1–S6). The same method was also used to test the MICs of NCL259 or NCL265 in the presence of PMB against a range of Gram-negative reference strains (E. coli ATCC 25922, E. coli ATCC 10763, P. aeruginosa PAO1, P. aeruginosa ATCC 27853, A. baumannii ATCC 12457, A. baumannii ATCC 19606, K. pneumoniae ATCC 4352 and K. pneumoniae ATCC 33495). Stock solutions were prepared prior to use (25.6–0.25 mg/mL for robenidine analogues; 12.8–0.25 mg/mL for PMB). The interaction of two antibiotics was calculated as the fractional inhibitory concentration index (FICI) using the following formula:(1) FICI=MICA in combination/MICA alone+MICB in combination/MICB alone where A is NCL259 or NCL265 and B is PAβN or PMB. According to FICI calculations, the interaction between two compounds were interpreted as follows: synergistic (FICI ≤ 0.5); additive or partially synergistic (0.5 < FICI ≤ 1); indifferent (1 < FICI ≤ 4); and antagonistic (FICI > 4), as described previously. The dose reduction index (DRI) was used to describe the difference between the effective doses of NCL259 or NCL265 in combination with PMB or PAβN in comparison to their individual doses, using the following formula:(2) DRI=MICA alone/MICA in combination
Evaluation of DRI is important clinically because it can allow the dose of a potentially toxic drug to be lowered in combination with another compound without reducing the drug’s efficacy. A DRI higher than 1 is viewed as beneficial.

The subject of test [1] is 51 clinical ExPEC isolates from companion animals and 83 porcine and bovine ETEC isolates. Put plainly: MIC, broth micro-dilution, all animal clinical isolates. The format is cell-based, Escherichia coli. The conditions noted are these: ExPEC and ETEC isolates together. The procedure: A variety of Gram-negative reference strains (E. coli ATCC 25922, E. coli ATCC 10763, P. aeruginosa PAO1, P. aeruginosa ATCC 27853, A. baumannii ATCC 12457, A. baumannii ATCC 19606, K. pneumoniae ATCC 4352 and K. pneumoniae ATCC 33495) were used for initial screening and combination testing with PMB. The organisms were speciated using biochemical testing and MALDI-TOF mass spectrometry (Bruker, Preston, VIC, Australia). Activity testing of NCL259 and NCL265 was also carried out on 51 extraintestinal clinical E. coli isolates from companion animals, and 83 porcine and bovine enterotoxigenic E. coli (ETEC) isolates from the Australian Centre for Antimicrobial Resistance Ecology collection. […]
MICs for NCL259 and NCL265 (serial two-fold dilutions commencing at 256 µg/mL) were determined (in duplicate) in round bottom 96–well microtitre trays (Sarstedt 82.1582.001), using the broth micro-dilution method recommended by the Clinical and Laboratory Standards Institute (CLSI). […] The MIC for ampicillin against each isolate was determined for each test to serve as an internal quality control. The MICs of isolates were determined by visual reading and using an EnSpire Multimode Plate Reader 2300 at A600nm.
(In general: In broth dilution the organism is exposed to a series of concentrations in liquid medium.)

A further test deals with E. coli BW 25113 (∆AcrB). Put plainly: MIC, efflux-pump mutant. The conditions noted are these: for reduction of MIC in the ∆AcrB mutant compared to wild-type: E. coli BW 25113 ∆AcrB vs wild-type parent; for MIC: Escherichia coli, read-out: MIC Values. It is filed as cell-based, Escherichia coli. How it is done:
A variety of Gram-negative reference strains (E. coli ATCC 25922, E. coli ATCC 10763, P. aeruginosa PAO1, P. aeruginosa ATCC 27853, A. baumannii ATCC 12457, A. baumannii ATCC 19606, K. pneumoniae ATCC 4352 and K. pneumoniae ATCC 33495) were used for initial screening and combination testing with PMB. The organisms were speciated using biochemical testing and MALDI-TOF mass spectrometry (Bruker, Preston, VIC, Australia). Activity testing of NCL259 and NCL265 was also carried out on 51 extraintestinal clinical E. coli isolates from companion animals, and 83 porcine and bovine enterotoxigenic E. coli (ETEC) isolates from the Australian Centre for Antimicrobial Resistance Ecology collection. E. coli wild-type (BW 25113) and its mutant BW 25113∆AcrB, in which the inner membrane component AcrB of the tripartite multidrug efflux system AcrA/AcrB/TolC has been deleted, were obtained from the bacterial collection held at Health and Biomedical Innovation, Clinical and Health Sciences, The University of South Australia. All isolates were cultured on sheep blood agar (SBA) plates at 37 °C for 18 h before being subcultured into Luria Bertaini (LB) (Oxoid, Scoresby, VIC, Australia) broth and grown to A600nm = 0.5 (equivalent to approx. 1.5 × 10^8 colony-forming units (CFU)/mL).
MICs for NCL259 and NCL265 (serial two-fold dilutions commencing at 256 µg/mL) were determined (in duplicate) in round bottom 96–well microtitre trays (Sarstedt 82.1582.001), using the broth micro-dilution method recommended by the Clinical and Laboratory Standards Institute (CLSI). We have shown previously that robenidine can chelate calcium ions from cation-adjusted Mueller-Hinton broth, which causes the loss of activity of robenidine. Therefore, LB broth was used in this study. Additionally, considering the low solubility of robenidine and its analogues in aqueous solutions, two-fold serial dilutions of stock solutions of these compounds were prepared in 100% DMSO [21]. The MIC for ampicillin against each isolate was determined for each test to serve as an internal quality control. The MICs of isolates were determined by visual reading and using an EnSpire Multimode Plate Reader 2300 at A600nm.

Test [2] deals with MCF-7 (human mammary gland adenocarcinoma cell line). The experiment in a line: In vitro cytotoxicity, WST-1. The format is cell-based. The conditions noted are these: MCF7, 24 h. An excerpt: (§1) Potential toxicity of NCL259 and NCL265 to mammalian cells relative to the parent compound (NCL812) was examined using Caco-2 (human colorectal adenocarcinoma cell line), HEL 299 (non-cancerous human lung fibroblast cell line), Hep G2 (human hepatocellular carcinoma cell line), MCF-7 (human mammary gland adenocarcinoma cell line), MDBK (normal Madin–Darby bovine kidney cell line) and Vero (normal adult African green monkey cell line), essentially as described previously. Toxicity to the cell lines was performed using serial two-fold dilutions of each compound from 128 to 1 μg/mL in duplicates in flat bottom 96 well tissue culture trays (Sarstedt 83.3924) containing approximately 2 × 10^4 cells per well in antibiotic-free Dulbecco’s Modified Eagle’s Medium (DMEM; Gibco Cat No: 12430; Thermo Fisher Scientific, Scoresby, VIC, Australia) consisting of 10% (v/v) fetal bovine serum at 37 °C, 5% CO2 for 24 h. Duplicate wells containing ampicillin at 128 to 1 μg/mL were used as controls. Thereafter, 10% (v/v) of the WST-1 cell proliferation assay reagent (Cat No: 05015944001; Roche Life Science, North Ryde, NSW, Australia) was added to each well, the trays were further incubated at 37 °C, 5% CO2 for 1 h and absorbance read at A450nm on a Multiskan Ascent 354 Spectrophotometer (Labsystems, Lilydale, VIC, Australia). The inhibitory concentration of each compound was determined as the half maximal inhibitory concentration (IC50) at A450nm.
(In general: Tetrazolium assays rely on reduction of a dye to a coloured formazan, in cell work by metabolically active cells.)

The test system of test [3] is Vero (normal adult African green monkey cell line). Put plainly: In vitro cytotoxicity, WST-1. The conditions noted are these: Chlorocebus sabaeus, 24 h. The format is cell-based.
Source text: as §1

[4] abbreviates: first of two independent experiments.
Setting [5] is: second of two independent experiments.

As usually defined, the MIC is the lowest concentration found to suppress growth. By IC50 is commonly meant the concentration that inhibits the measured activity by half. Take `[H]/N=C(\N)NN=C(CCCCCC)c1ccc(Cl)cc1` [NCL265, (E)-2-(1-(4-chlorophenyl)heptylidene)hydrazine-1-carboximidamide]: in the test with P. aeruginosa PAO1, the “MIC, Combination” value stood at 0.25 µg/mL; the “Combination Effect” value is “Additivity (additive or partially synergistic, 0.5 < FICI ≤ 1)”; the FICI is recorded as 0.504. Further, the “Dose Reduction Index (DRI) PMB:NCL265” value with P. aeruginosa PAO1 (PMB + NCL265) was found to be 256. The MIC range in test [1] lay in the range of 2 to 16 µg/mL. In the test with E. coli BW 25113 (∆AcrB), the “reduction of MIC in the ∆AcrB mutant compared to wild-type” value is given as 16 fold and the MIC came to 1 µg/mL. Moreover, in test [2] (setting [4]), the concentration for half-maximal inhibition (IC50) is below 1 µg/mL. For the same molecule, half-maximal inhibition in test [2] (setting [5]) (IC50) required 6 µg/mL (≈ 21.4 µM). The IC50 in test [3] (setting [4]) was 6 µg/mL (≈ 21.4 µM). The IC50 in test [3] (setting [5]) came out at 3 µg/mL (≈ 10.7 µM).

In the case of `[H]/N=C(\N)NN=C(CC1CCCCC1)c1ccc(Cl)cc1` [NCL259, (E)-2-(1-(4-chlorophenyl)-2-cyclohexylethylidene)hydrazine-1-carboximidamide], in the test on P. aeruginosa PAO1, the “MIC, Combination” value was 1 µg/mL; the “Combination Effect” value is “Additivity (additive or partially synergistic, 0.5 < FICI ≤ 1)”; the FICI is 0.516. In the test with P. aeruginosa PAO1 (PMB + NCL259), the “Dose Reduction Index (DRI) PMB:NCL259” value turned out to be 64. In addition, the MIC range in test [1] lay within 4 to 64 µg/mL. Also, in the test on E. coli BW 25113 (∆AcrB), the “reduction of MIC in the ∆AcrB mutant compared to wild-type” value is reported as 16 fold and the MIC was found to be 4 µg/mL. The molecule also registered an IC50 in test [2] (setting [4]) of 3 µg/mL (≈ 10.2 µM). Further, inhibition in test [2] (setting [5]) was half-maximal at 6 µg/mL (≈ 20.5 µM) (IC50). The molecule also had an IC50 in test [3] (setting [4]) of 6 µg/mL (≈ 20.5 µM). This molecule also displayed an IC50 in test [3] (setting [5]) of 3 µg/mL (≈ 10.2 µM).
